Patent publication US20190175534A1, “PHARMACEUTICAL COMPOSITIONS COMPRISING DGLA AND USE OF SAME” (DS Biopharma Limited, priority 2016, published 2019)

Legend:
[1] = test system: patients with moderate to severe atopic dermatitis; assay: Phase II study of oral DS107G: safety; type: in vivo, human; conditions: oral 2 g once daily 8 weeks
Description: (§1) Subjects visited the clinic on 6 occasions: at screening, baseline, week 2, week 4, week 8 (end of treatment/early termination) and week 10 (follow-up). All subjects exited the study at the week 10 visit. The primary efficacy variable was the proportion of patients achieving an IGA of 0 (clear) or 1 (almost clear), and a decrease of at least 2 points in IGA at week 8. Secondary efficacy variables included: IGA at other visits, pruritus (obtained from the SCORAD visual analog scale), EASI, BSA, POEM, DLQI, SCORAD and TEWL (for selected sites only). Safety was assessed through adverse events, physical examination, vital signs and safety laboratory tests (including pregnancy tests for women of childbearing potential), Pharmacokinetic samples were obtained at Baseline (Day 0), week 4 and week 8 visits in order to measure total and free DGLA plasma trough levels. Separate plasma samples were retained for later analysis of total fatty acid profile and interleukin profile.
Laboratory tests were performed at screening, Day 0, Week 4 and Week 8. If Week 8 results indicated a clinically significant change from baseline, laboratory tests were also performed at Week 10. […]
Efficacy was evaluated on the basis of the ITT population and analyses were performed based on the randomized treatment and not on the treatment received. […]

[2] = test system: healthy male and female subjects; assay: Phase 1 study safety and tolerability (single and multiple dose); conditions: for Tolerability: healthy volunteers
Procedure: Screening procedures were conducted for both parts one and two before the start of the study on Day −1 (Baseline) by evaluating the safety assessments.
Subjects were monitored throughout their confinement at the Phase 1 unit for adverse reactions to the study drug and/or procedures.
Safety analyses were performed on the safety population tabulated by treatment arm, cohort, and visit. All safety data were characterized by descriptive statistical tools. […] Evaluation of safety assessments was performed in a descriptive manner. Continuous variables were characterized by their mean, standard deviation (SD), median, minimum and maximum values; discrete variables were characterized by their absolute (frequency) and relative (percentage) distribution.

[3] = test system: patients with moderate to severe atopic dermatitis; assay: Phase II placebo-controlled study of oral DS107G: efficacy (IGA, EASI, SCORAD, pruritus VAS, BSA); type: in vivo, human; conditions: for IGA Non-Responders at Week 8, (%) / IGA Responders at Week 8, (%) / IGA Score Week 8: 0 - Clear, (%) / IGA Score Week 8: 1 - Almost Clear, (%) / IGA Score Week 8: 2 - Mild, (%) / IGA Score Week 8: 3 - Moderate, (%) / IGA Score Week 8: 4 - Severe, (%) / IGA Score Week 8: 5 - Very Severe, (%): ITT; for Visual analog scale of pruritus, Week 8/ET Actual, Mean / Visual analog scale of pruritus, Week 8/ET Actual, Median: oral 2 g once daily
Procedure: A randomised, double-blind, placebo-controlled, phase II study was performed to assess the efficacy and safety of orally administered DS107G (DGLA) to patients with moderate to severe atopic dermatitis. The primary objective of the study was to compare the efficacy of orally administered DS107G capsules, versus placebo, in the treatment of adult patients with moderate to severe atopic dermatitis. The secondary objective was to assess the safety of orally administered DS107G capsules, versus placebo, in adult patients with moderate to severe atopic dermatitis. The primary study endpoint was the proportion of patients achieving an IGA (Investigator Global Assessment) of 0 (clear) or 1 (almost clear) and a decrease of at least 2 points in IGA at week 8. Secondary study endpoints included:
Approximately 100 patients with moderate to severe atopic dermatitis were included in this multicenter, double-blind, placebo controlled, phase IIa study. All subjects signed an informed consent and underwent screening for study eligibility. Subjects were randomized (1:1) at baseline visit to either receive oral DS107G 2 g or placebo, once daily for 8 weeks in a fasting state.
as §1
The EASI is a composite score ranging from 0-72 that takes into account the degree of erythema, induration/papulation, excoriation, and lichenification (each scored from 0 to 3 separately) for each of four body regions, with adjustment for the percent of BSA involved for each body region and for the proportion of the body region to the whole body. A detailed procedure of EASI score calculation is provided below.
SCORAD is calculated as follows: Six items (erythema, edema/papulation, oozing/crusts, excoriation, lichenification, and dryness) are selected to evaluate the AD severity. The intensity of each item is graded using a 4-point scale:
The overall BSA affected by AD is evaluated (from 0 to 100%) and divided by 5. One patient's palm represents 1% of his/her total BSA. The maximum is 20.
Subjective items include loss of sleep and the occurrence of pruritus. These are evaluated by asking patients to indicate on the 10-cm scale (0-10) on the assessment form the point corresponding to the average value for the last three days/nights. The combined maximum score of these two is 20.
The sum of the above measures represents the SCORAD which can vary from 0 to 103. If the subjective scores of pruritus and loss of sleep are excluded, the SCORAD becomes objective SCORAD (score range 0-83).
Body Surface Area (BSA). The overall BSA affected by AD will be evaluated (from 0 to 100%) at each visit. One patient's palm represents 1% of his/her total BSA. For all study visits, except at screening, the BSA of involved skin will be measured with the SCORAD measurement and evaluated as a separate endpoint.
Subjects who fulfilled all the inclusion and none of the exclusion criteria were accepted in the study. Each subject read and signed an informed consent form prior to any screening procedures being performed. […]

[4] = oral 2 g once daily 8 weeks, n 35

`CCCCC/C=C\C/C=C\C/C=C\CCCCCCC(=O)O` [DGLA, Dihomo gamma linolenic acid] was tested, and the “Drug related Serious Adverse Events” value [1] was “no drug related Serious Adverse Events”, the Tolerability [1] was “very well tolerated” and the Tolerability ([2]; 2000- or 4000-mg once daily for 28 consecutive days) was “tolerated well”. The Deaths ([2]; multi-dose study) was “no deaths”, the “Severe TEAEs” value ([2]; multiple dose) was “no severe TEAEs” and the “Total number of TEAEs among active-treated subjects” value ([2]; multiple dose) was 52. The “Proportion of subjects reporting diarrhea” value ([2]; multiple dose, 2000-mg group (3/6)) was 50%, the “Proportion of subjects reporting diarrhea” value ([2]; multiple dose, 4000-mg group (4/6)) was 66.7% and the Subjects reporting nausea ([2]; multiple dose, 4000-mg treatment group (10 events among 4/6)) was 66.7%. For the same molecule, the “Incidence of TEAEs among active-treated subjects” value ([2]; multiple dose, 11/12 subjects) was 91.73%, the Tolerability ([2]; single dose 500, 1000, 2000 or 4000 mg) was “well tolerated” and the “Incidence of diarrhea (loose stool), active-treated subjects” value ([2]; single dose, 5/24 subjects) was 20.8%. The “IGA Non-Responders at Week 8, (%)” value ([3]; Moderate at baseline) was “(72.4) %”, the “IGA Responders at Week 8, (%)” value ([3]; Moderate at baseline) was “(27.6) %” and the “IGA Score Week 8: 0 - Clear, (%)” value ([3]; Moderate at baseline) was “(13.8) %”. For the same molecule, the “IGA Score Week 8: 1 - Almost Clear, (%)” value ([3]; Moderate at baseline) was “(13.8) %”, the “IGA Score Week 8: 2 - Mild, (%)” value ([3]; Moderate at baseline) was “(20.7) %” and the “IGA Score Week 8: 3 - Moderate, (%)” value ([3]; Moderate at baseline) was “(13.8) %”. The “IGA Score Week 8: 4 - Severe, (%)” value ([3]; Moderate at baseline) was “(3.4) %”, the “IGA Score Week 8: 5 - Very Severe, (%)” value ([3]; Moderate at baseline) was “(0.0) %” and the “IGA Non-Responders at Week 8, (%)” value ([3]; Very Severe/Severe at baseline) was “(72.7) %”. For the same molecule, the “IGA Score Week 8: 0 - Clear, (%)” value ([3]; Very Severe/Severe at baseline) was “(0.0) %”, the “IGA Score Week 8: 1 - Almost Clear, (%)” value ([3]; Very Severe/Severe at baseline) was “(13.6) %” and the “IGA Score Week 8: 2 - Mild, (%)” value ([3]; Very Severe/Severe at baseline) was “(13.6) %”. The “IGA Score Week 8: 3 - Moderate, (%)” value ([3]; Very Severe/Severe at baseline) was “(27.3) %”, the “IGA Score Week 8: 4 - Severe, (%)” value ([3]; Very Severe/Severe at baseline) was “(13.6) %” and the “IGA Score Week 8: 5 - Very Severe, (%)” value ([3]; Very Severe/Severe at baseline) was “(4.5) %”. For the same molecule, the “IGA Responders at Week 8, (%)” value ([3]; Very Severe/Severe at baseline, p-value 0.542) was “(27.3) %”, the “IGA Non-Responders at Week 8, (%)” value ([3]; total population (N = 51)) was “(72.5) %” and the “IGA Score Week 8: 0 - Clear, (%)” value ([3]; total population (N = 51)) was “(7.8) %”. The “IGA Score Week 8: 1 - Almost Clear, (%)” value ([3]; total population (N = 51)) was “(13.7) %”, the “IGA Score Week 8: 2 - Mild, (%)” value ([3]; total population (N = 51)) was “(17.6) %” and the “IGA Score Week 8: 3 - Moderate, (%)” value ([3]; total population (N = 51)) was “(19.6) %”. The “IGA Score Week 8: 4 - Severe, (%)” value ([3]; total population (N = 51)) was “(7.8) %”, the “IGA Score Week 8: 5 - Very Severe, (%)” value ([3]; total population (N = 51)) was “(2.0) %” and the “IGA Responders at Week 8, (%)” value ([3]; total population, decrease of at least 2 points in IGA score, p-value 0.065 (Cochran-Mantel-Haenszel), 0.228 (Fisher Exact)) was “(27.5) %”. For the same molecule, the “Visual analog scale of pruritus, Week 8/ET Actual, Mean” value ([3]; Table 9A (Week 4), n 35) was 4.6, the “Visual analog scale of pruritus, Week 8/ET Actual, Median” value ([3]; Table 9A (Week 4), n 35) was 4.0 and the “Visual analog scale of pruritus, Week 8/ET Actual, Mean” value ([3]; Table 9B (Week 8), n 35) was 4.6. For the same molecule, the “Visual analog scale of pruritus, Week 8/ET Actual, Median” value ([3]; Table 9B (Week 8), n 35) was 4.0, the “EASI, Change from baseline, LSMEANS” value ([3]; Week 8/ET, ANCOVA, p-value 0.831 vs placebo) was −8.0 and the “Primary efficacy end point (two point drop in IGA and end of treatment IGA of 0 or 1) over placebo” value ([3]; intent to treat analysis, overall, p=0.057) was “clinically significant trend”. The “Primary efficacy end point (two point drop in IGA and end of treatment IGA of 0 or 1) over placebo” value ([3]; moderate patient subgroup (n=67), p=0.036) was “statistically significant improvement”, the “Body surface area affected by atopic dermatitis, Week 8/ET Actual, Median” value [3, 4] was 12.0 and the “EASI, Week 8/ET Actual, Median” value [3, 4] was 7.4. The “Eczema area and severity index (EASI), Week 8/ET Actual, Mean” value [3, 4] was 9.3 and the “Pruritus score [visual analog scale]” value ([3]; within four weeks of dosing, p=0.015) was “statistically significant reduction of itch”.
